“And” between values parts separate entries of the source, which are not always exact repeats. Equal entries are not always repeated.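 Exposure lasted 48 hours, with cells grown in 96-well plates and compounds tested at five concentrations. Here, GI50 denotes the concentration required for 50% inhibition of growth. At the TGI there is no net growth.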 Bounds are passed on as bounds.

Holding throughout (assay): DTP human tumour cell line panel, 48 h
Test [1] deals with HCC-2998 colon.
Test [2] concerns NCI-H522 lung.
In test [3] the test system is HCT-116 colon.
The subject of test [4] is HOP-92 NSCLC.
For test [5], the system named is SN12C renal.
Test [6] has as its system UACC-257 melanoma.
For test [7], the system named is RXF 393 renal.
Test [8] deals with SK-MEL-2 melanoma.
The test system of test [9] is LOX IMVI melanoma.
Test [10] relates to MALME-3M melanoma.

The term GI50 denotes the concentration at which growth is held to half of that of the control. A word on the TGI: it is the concentration giving total growth inhibition. Low readings indicate more potent growth arrest, high ones less potent growth arrest. For the molecule `CCOC(=O)/N=c1\ss/c(=N\C(=S)N(C)C)n1-c1ccccc1`, the GI50 in test [1] was more than 100 µM; in test [2] it was 0.401 µM; in test [3], more than 100 µM; in [5], more than 100 µM; in test [6] it was more than 100 µM; in [7], 15.3 µM. For the same molecule, the GI50 in test [10] is more than 100 µM. Moreover, the TGI in test [1] was more than 100 µM; in test [3], more than 100 µM; in [4], 94.2 µM; in [5], more than 100 µM; in test [6], more than 100 µM; in test [7] it was 7.13 µM and 44.2 µM. For the same molecule, the TGI in test [8], in test [9] and in test [10] was more than 100 µM throughout.

Regarding `COc1ccc(/C=C2/CCCC/C2=N/O)cc1`, the TGI in [1], in [2], in [3], in test [4], in test [5] and in test [6] was more than 100 µM in each case. The concentration for total growth inhibition (TGI) in [7], in test [8], in test [9] and in test [10] was more than 100 µM each time.

Regarding `COc1ccc(-c2cc(-c3ccc(Nc4nc(Nc5ccc(Cl)cc5)nc(Nc5ccc(Cl)cc5)n4)cc3)nc(N)c2C#N)cc1`, the GI50 in test [1] is 1.85 µM; in test [2] it was 1.75 µM; in test [3] it was 1.65 µM; in test [4] it was 1.31 µM; in test [5] it was 2.58 µM; in [6], 1.79 µM. The GI50 in [7] was 0.491 µM; in [8], 1.66 µM; in test [9], 1.4 µM; in test [10] it was 1.73 µM. Also, the TGI in test [1] was 4.55 µM; in [2], 5.53 µM; in test [3], 3.65 µM; in test [4] it was 3.14 µM; in test [5], more than 100 µM; in test [6], 3.63 µM. Also, the TGI stood at 1.92 µM in [7], 3.2 µM in test [8], 2.73 µM in test [9] and 3.49 µM in test [10].

Values taken from PubChem BioAssay (NCI).
